Laboratory results from US4087432A, “1H-imidazo(4,5-b)pyridine compounds” (Eli Lilly and Company, priority 1975, dated 1978).

How the values were obtained:
Lambs Quarter = assay: General herbicidal effect alone/in combination, lambsquarter; type: in vivo; parameters: key: 0-10 scale: 0 = no injury, 10 = death; conditions: alone
Description: (§1) Various of the compounds to be employed as active agent in accordance with the present invention were evaluated for preemergent application to various species of plants. In this evaluation, a soil was prepared consisting of one part masonry sand and one part shredded top soil blended together in a cement mixer. One gallon of this soil was placed in a 25 × 35 cm. galvanized flat and was patted down with a bench brush until level. A three-row marker was used to make 21/2 cm. deep furrows in approximately two-fifths of the flat. Crop seeds consisting of four kernels of corn, five cotton seeds and five soybean seeds were placed in these furrows. A four-row template was then placed on the remaining soil and the indicated approximate numbers of each of the following seeds were planted, one species to each section: foxtail (millet), 80-100 seeds; velvetleaf (40-50 seeds); rough pigweed (150-250 seeds); and large crabgrass (100-150 seeds).
(§2) Sufficient soil was added to cover the entire flat. Thus, the weed seeds were covered to a depth of about 6 mm. and the crop seeds were covered to a depth of about 3 cm.
(§3) In assaying the effect of the composition as preemergent herbicides, a flat prepared as above, taken either on the day of planting or on the next day, was placed in a chamber equipped with a turntable and an air exhaust. The herbicidal composition, either a spray-type emulsion or a wettable powder, was applied to the flat with a modified DeVilbiss atomizer hooked to an air source. Twelve and one-half milliliters of the composition under test were applied to each flat either on the day of planting or the succeeding day. Injury ratings and observations as to type of injury were made eleven to twelve days after treatment. The injury rating scale used was as follows:
(§4) 4--death When more than one determination was carried out at a given rate, an average value was calculated for the injury rating. Each compound evaluated was formulated as a spray by one of the following procedures. In one method the particular compound was wetted by grinding in a mortar with one part of polyoxyethylene sorbitan monolaurate. Five hundred parts of water were added slowly to the resultant creamy paste to give an aqueous dispersion with a surfactant concentration of 0.2 percent. This dispersion was entirely satisfactory for spray application. In a second procedure the compound was dissolved in one volume of acetone, and the acetone solution was diluted with nineteen volumes of water containing 0.1 percent of polyoxyethylene sorbitan monolaurate.
(§5) 6-Chloro-1-hydroxy-2-(trifluoromethyl)-1H-imidazo(4,5-b)pyridine was evaluated in combination with 2-chloro-4-ethylamino-6-isopropylamino-s-triazine and separately in combination with 2-chloro-2',6'-diethyl-N-(methoxymethyl)acetanilide for the control of plants. The evaluations were conducted as described in Examples 49-52, except that the rates of compound differed and the species were different. General herbicidal effect was rated on a scale of 0-10, with 0 = no injury and 10 = death. Observations were also made for the following other specific phytotoxic effects.

Sorghum = assay: General herbicidal effect alone/in combination, sorghum; type: in vivo; parameters: key: 0-10 scale: 0 = no injury, 10 = death; conditions: alone
Description: as §1, §2, §3, §4, §5

Foxtail Millet = assay: General herbicidal effect alone/in combination, foxtail millet; type: in vivo; parameters: key: 0-10 scale: 0 = no injury, 10 = death; conditions: alone
Description: as §1, §2, §3, §4, §5

Velvet Leaf [1] = assay: General herbicidal effect alone/in combination, velvetleaf; type: in vivo; parameters: key: 0-10 scale: 0 = no injury, 10 = death; conditions: alone
Description: as §1, §2, §3, §4, §5

Pigweed [2] = assay: General herbicidal effect alone/in combination, pigweed; type: in vivo; parameters: key: 0-10 scale: 0 = no injury, 10 = death; conditions: alone
Description: as §1, §2, §3, §4, §5

Johnson Grass = assay: General herbicidal effect alone/in combination, Johnson grass; type: in vivo; conditions: alone
Description: as §1, §2, §3, §4, §5

Barnyard Grass = assay: General herbicidal effect alone/in combination, barnyard grass; type: in vivo; parameters: key: 0-10 scale: 0 = no injury, 10 = death; conditions: alone
Description: as §1, §2, §3, §4, §5

Corn [3] = assay: General herbicidal effect alone/in combination, corn (second Corn column); type: in vivo; parameters: key: 0-10 scale: 0 = no injury, 10 = death; conditions: alone
Description: as §1, §2, §3, §4, §5

Rice = assay: General herbicidal effect alone/in combination, rice; type: in vivo; parameters: key: 0-10 scale: 0 = no injury, 10 = death; conditions: alone
Description: as §1, §2, §3, §4, §5

Ragweed = assay: General herbicidal effect alone/in combination, ragweed; type: in vivo; parameters: key: 0-10 scale: 0 = no injury, 10 = death; conditions: alone
Description: as §1, §2, §3, §4, §5

Large Crabgrass = assay: General herbicidal effect alone/in combination, large crabgrass; type: in vivo; parameters: key: 0-10 scale: 0 = no injury, 10 = death; conditions: alone
Description: as §1, §2, §3, §4, §5

Corn [4] = assay: General herbicidal effect alone/in combination, corn (first Corn column); type: in vivo; parameters: key: 0-10 scale: 0 = no injury, 10 = death; conditions: alone
Description: as §1, §2, §3, §4, §5

Morning glory = assay: General herbicidal effect alone/in combination, morning glory; type: in vivo; parameters: key: 0-10 scale: 0 = no injury, 10 = death; conditions: alone
Description: as §1, §2, §3, §4, §5

Jimsonweed = assay: General herbicidal effect alone/in combination, jimsonweed; type: in vivo; parameters: key: 0-10 scale: 0 = no injury, 10 = death; conditions: alone
Description: as §1, §2, §3, §4, §5

Crabgrass = assay: Postemergent injury rating, crabgrass; type: in vivo, large crabgrass; parameters: key: injury rating scale, 4 = death; conditions: 8 lbs/acre
Description: as §1, §2, §3, §4
(§6) Representative compounds of the present invention were evaluated for postemergent application to plants including corn and several weed species. The evaluation was carried out in accordance with the procedures of Examples 49-52 except that the test solutions were applied about 9-12 days after the preparation and seeding of the flats.

Corn [5] = assay: Postemergent injury rating, corn; type: in vivo; parameters: key: injury rating scale, 4 = death; conditions: 8 lbs/acre
Description: as §1, §2, §3, §4, §6

Velvet Leaf [6] = assay: Postemergent injury rating, velvetleaf; type: in vivo; conditions: 8 lbs/acre
Description: as §1, §2, §3, §4, §6

Foxtail = assay: Postemergent injury rating, foxtail; type: in vivo, foxtail (millet); parameters: key: injury rating scale, 4 = death; conditions: 8 lbs/acre
Description: as §1, §2, §3, §4, §6

Pigweed [7] = assay: Postemergent injury rating, pigweed; type: in vivo, rough pigweed; parameters: key: injury rating scale, 4 = death; conditions: 8 lbs/acre
Description: as §1, §2, §3, §4, §6

CCNc1nc(Cl)nc(NC(C)C)n1 [B, 2-chloro-4-ethylamino-6-isopropylamino-s-triazine]
herbicidal effect, Lambs Quarter (Lambs Quarter; 0.25 lbs/A): 9BS | herbicidal effect, Lambs Quarter (Lambs Quarter; 0.5 lbs/A): 9BS | herbicidal effect, Lambs Quarter (Lambs Quarter; 1.0 lbs/A): 9.5BS | herbicidal effect, Lambs Quarter (Lambs Quarter; 2.0 lbs/A): 9.5BS | herbicidal effect, Sorghum (Sorghum; 0.25 lbs/A): 0 | herbicidal effect, Sorghum (Sorghum; 0.5 lbs/A): 0 | herbicidal effect, Sorghum (Sorghum; 1.0 lbs/A): 1B | herbicidal effect, Sorghum (Sorghum; 2.0 lbs/A): 2B | herbicidal effect, Foxtail Millet (Foxtail Millet; 0.25 lbs/A): 0 | herbicidal effect, Foxtail Millet (Foxtail Millet; 0.5 lbs/A): 0 | herbicidal effect, Foxtail Millet (Foxtail Millet; 1.0 lbs/A): 4SB | herbicidal effect, Foxtail Millet (Foxtail Millet; 2.0 lbs/A): 5SB | herbicidal effect, Velvet leaf (Velvet Leaf [1]; 0.25 lbs/A): 3S | herbicidal effect, Velvet leaf (Velvet Leaf [1]; 0.5 lbs/A): 3S | herbicidal effect, Velvet leaf (Velvet Leaf [1]; 1.0 lbs/A): 7BS | herbicidal effect, Velvet leaf (Velvet Leaf [1]; 2.0 lbs/A): 10D | herbicidal effect, Pigweed (Pigweed [2]; 0.25 lbs/A): 9BS | herbicidal effect, Pigweed (Pigweed [2]; 0.5 lbs/A): 10D | herbicidal effect, Pigweed (Pigweed [2]; 1.0 lbs/A): 10D | herbicidal effect, Pigweed (Pigweed [2]; 2.0 lbs/A): 10D | herbicidal effect, Johnson Grass (Johnson Grass; 0.25 lbs/A): 3S | herbicidal effect, Johnson Grass (Johnson Grass; 0.5 lbs/A): 0 | herbicidal effect, Johnson Grass (Johnson Grass; 1.0 lbs/A): 0 | herbicidal effect, Johnson Grass (Johnson Grass; 2.0 lbs/A): 2S | herbicidal effect, Barnyard Grass (Barnyard Grass; 0.25 lbs/A): 2S | herbicidal effect, Barnyard Grass (Barnyard Grass; 0.5 lbs/A): 5SB | herbicidal effect, Barnyard Grass (Barnyard Grass; 1.0 lbs/A): 4SB | herbicidal effect, Barnyard Grass (Barnyard Grass; 2.0 lbs/A): 8BS | herbicidal effect, Corn (Corn [3]; 0.25 lbs/A): 0 | herbicidal effect, Corn (Corn [3]; 0.5 lbs/A): 0 | herbicidal effect, Corn (Corn [3]; 1.0 lbs/A): 0 | herbicidal effect, Corn (Corn [3]; 2.0 lbs/A): 0 | herbicidal effect, Rice (Rice; 0.25 lbs/A): 4B | herbicidal effect, Rice (Rice; 0.5 lbs/A): 4B | herbicidal effect, Rice (Rice; 1.0 lbs/A): 7B | herbicidal effect, Rice (Rice; 2.0 lbs/A): 8B | herbicidal effect, Ragweed (Ragweed; 0.25 lbs/A): 5S | herbicidal effect, Ragweed (Ragweed; 0.5 lbs/A): 7SB | herbicidal effect, Ragweed (Ragweed; 1.0 lbs/A): 8BS | herbicidal effect, Ragweed (Ragweed; 2.0 lbs/A): 10D | herbicidal effect, Large Crabgrass (Large Crabgrass; 0.25 lbs/A): 0 | herbicidal effect, Large Crabgrass (Large Crabgrass; 0.5 lbs/A): 2S | herbicidal effect, Large Crabgrass (Large Crabgrass; 1.0 lbs/A): 5S | herbicidal effect, Large Crabgrass (Large Crabgrass; 2.0 lbs/A): 6BS | herbicidal effect, Corn (Corn [4]; 0.25 lbs/A): 0 | herbicidal effect, Corn (Corn [4]; 0.5 lbs/A): 0 | herbicidal effect, Corn (Corn [4]; 1.0 lbs/A): 0 | herbicidal effect, Corn (Corn [4]; 2.0 lbs/A): 0 | herbicidal effect, Morning glory (Morning glory; 0.25 lbs/A): 8BS | herbicidal effect, Morning glory (Morning glory; 0.5 lbs/A): 9BS | herbicidal effect, Morning glory (Morning glory; 1.0 lbs/A): 10D | herbicidal effect, Morning glory (Morning glory; 2.0 lbs/A): 10D | herbicidal effect, Jimsonweed (Jimsonweed; 0.25 lbs/A): 9BS | herbicidal effect, Jimsonweed (Jimsonweed; 0.5 lbs/A): 9BS | herbicidal effect, Jimsonweed (Jimsonweed; 1.0 lbs/A): 9BS | herbicidal effect, Jimsonweed (Jimsonweed; 2.0 lbs/A): 9BS

On1c(C(F)(F)F)nc2nc(Br)c(Cl)c(Br)c21 [5,7-dibromo-6-chloro-1-hydroxy-2-(trifluoromethyl)-1H-imidazo(4,5-b)pyridine]
Injury Rating, Crabgrass (Crabgrass): 4 | Injury Rating, Corn (Corn [5]): 1 | Injury Rating, Velvet Leaf (Velvet Leaf [6]): 3 | Injury Rating, Foxtail (Foxtail): 4 | Injury Rating, Pigweed (Pigweed [7]): 4

Cc1cnc2nc(C(F)(F)F)n(O)c2c1 [6-methyl-1-hydroxy-2-(trifluoromethyl)-1H-imidazo(4,5-b)pyridine]
Injury Rating, Crabgrass (Crabgrass): 3 | Injury Rating, Corn (Corn [5]): 1 | Injury Rating, Velvet Leaf (Velvet Leaf [6]): 1 | Injury Rating, Foxtail (Foxtail): 3 | Injury Rating, Pigweed (Pigweed [7]): 3

CCc1cccc(CC)c1N(COC)C(=O)CCl [C, 2-chloro-2',6'-diethyl-N-(methoxymethyl)acetanilide]
herbicidal effect, Lambs Quarter (Lambs Quarter; 1.0 lbs/A): 5S | herbicidal effect, Lambs Quarter (Lambs Quarter; 2.0 lbs/A): 10N | herbicidal effect, Lambs Quarter (Lambs Quarter; 4.0 lbs/A): 10N | herbicidal effect, Sorghum (Sorghum; 0.5 lbs/A): 3SF | herbicidal effect, Sorghum (Sorghum; 1.0 lbs/A): 4SF | herbicidal effect, Sorghum (Sorghum; 2.0 lbs/A): 8SF | herbicidal effect, Sorghum (Sorghum; 4.0 lbs/A): 8SFR | herbicidal effect, Foxtail Millet (Foxtail Millet; 0.5 lbs/A): 9SBR | herbicidal effect, Foxtail Millet (Foxtail Millet; 1.0 lbs/A): 9RSB | herbicidal effect, Foxtail Millet (Foxtail Millet; 2.0 lbs/A): 9.5RSB | herbicidal effect, Foxtail Millet (Foxtail Millet; 4.0 lbs/A): 10D | herbicidal effect, Velvet leaf (Velvet Leaf [1]; 0.5 lbs/A): 2S | herbicidal effect, Velvet leaf (Velvet Leaf [1]; 1.0 lbs/A): 3S | herbicidal effect, Velvet leaf (Velvet Leaf [1]; 2.0 lbs/A): 6S | herbicidal effect, Velvet leaf (Velvet Leaf [1]; 4.0 lbs/A): 3S | herbicidal effect, Pigweed (Pigweed [2]; 0.5 lbs/A): 7S | herbicidal effect, Pigweed (Pigweed [2]; 1.0 lbs/A): 8SR | herbicidal effect, Pigweed (Pigweed [2]; 2.0 lbs/A): 10N | herbicidal effect, Pigweed (Pigweed [2]; 4.0 lbs/A): 10N | herbicidal effect, Johnson Grass (Johnson Grass; 0.5 lbs/A): 9RS | herbicidal effect, Johnson Grass (Johnson Grass; 1.0 lbs/A): 9RS | herbicidal effect, Johnson Grass (Johnson Grass; 2.0 lbs/A): 9.5RS | herbicidal effect, Johnson Grass (Johnson Grass; 4.0 lbs/A): 10N | herbicidal effect, Barnyard Grass (Barnyard Grass; 0.5 lbs/A): 5SR | herbicidal effect, Barnyard Grass (Barnyard Grass; 1.0 lbs/A): 8S | herbicidal effect, Barnyard Grass (Barnyard Grass; 2.0 lbs/A): 8RSF | herbicidal effect, Barnyard Grass (Barnyard Grass; 4.0 lbs/A): 9.5RS | herbicidal effect, Corn (Corn [3]; 0.5 lbs/A): 0 | herbicidal effect, Corn (Corn [3]; 1.0 lbs/A): 0 | herbicidal effect, Corn (Corn [3]; 2.0 lbs/A): 1SB | herbicidal effect, Corn (Corn [3]; 4.0 lbs/A): 2S | herbicidal effect, Rice (Rice; 0.5 lbs/A): 0 | herbicidal effect, Rice (Rice; 1.0 lbs/A): 9RS | herbicidal effect, Rice (Rice; 2.0 lbs/A): 10N | herbicidal effect, Rice (Rice; 4.0 lbs/A): 10N | herbicidal effect, Ragweed (Ragweed; 0.5 lbs/A): 0 | herbicidal effect, Ragweed (Ragweed; 1.0 lbs/A): 5S | herbicidal effect, Ragweed (Ragweed; 2.0 lbs/A): 7S | herbicidal effect, Ragweed (Ragweed; 4.0 lbs/A): 8SR | herbicidal effect, Large Crabgrass (Large Crabgrass; 0.5 lbs/A): 8RS | herbicidal effect, Large Crabgrass (Large Crabgrass; 1.0 lbs/A): 9RS | herbicidal effect, Large Crabgrass (Large Crabgrass; 2.0 lbs/A): 10N | herbicidal effect, Large Crabgrass (Large Crabgrass; 4.0 lbs/A): 10N | herbicidal effect, Corn (Corn [4]; 0.5 lbs/A): 0 | herbicidal effect, Corn (Corn [4]; 1.0 lbs/A): 0 | herbicidal effect, Corn (Corn [4]; 2.0 lbs/A): 2S | herbicidal effect, Corn (Corn [4]; 4.0 lbs/A): 2S | herbicidal effect, Morning glory (Morning glory; 0.5 lbs/A): 0 | herbicidal effect, Morning glory (Morning glory; 1.0 lbs/A): 2S | herbicidal effect, Morning glory (Morning glory; 2.0 lbs/A): 2SF | herbicidal effect, Morning glory (Morning glory; 4.0 lbs/A): 3SF | herbicidal effect, Jimsonweed (Jimsonweed; 0.5 lbs/A): 0 | herbicidal effect, Jimsonweed (Jimsonweed; 1.0 lbs/A): 3S | herbicidal effect, Jimsonweed (Jimsonweed; 2.0 lbs/A): 4S | herbicidal effect, Jimsonweed (Jimsonweed; 4.0 lbs/A): 5S
